Values quoted from earlier work in US20090306081A1, “Solid Dosage Formulations of Hydralazine Compounds and Nitric Oxide Donor Compounds” (priority 2006, published 2009).

## O=[N+]([O-])O[C@H]1CO[C@H]2[C@@H]1OC[C@H]2O[N+](=O)[O-] [Diluted isosorbide dinitrate, 1,4,3,6-dianhydro-D-glucitol-2,5-dinitrate]
Organic solvents such as ethanol, ether and chloroform
  solubility in organic solvents: freely soluble
water
  solubility in water: sparingly soluble
